Test results from article PMC7595150, “Amorphous solid dispersions of enzalutamide and novel polysaccharide derivatives: investigation of relationships between polymer structure and performance” (Scientific Reports, 2020).
In brackets after ≈: the same amount, converted by molar mass. Marks after values point to notes of the source that are not given here.

Key:
Aqueous solubility = format: physicochemical
[1] = Nucleation induction time of supersaturated enzalutamide solutions with pre-dissolved polymer (UV dip probe); format: physicochemical; settings: absence of polymers; initial 70 μg/mL enzalutamide, pH 6.5 phosphate buffer, 37 °C
Procedure: The average time to detect the onset of crystallization for supersaturated solutions of enzalutamide was determined in phosphate buffer (pH 6.5, 50 mM) containing pre-dissolved polymer using an in situ UV dip probe as described by Mosquera-Giraldo et al.[11]. […] For enzalutamide the absorbance maximum is 237 nm and the baseline wavelength used was 446 nm. […] Next, a methanolic solution of enzalutamide (245 µL, 10 mg/mL) was added to the polymeric solution (35 mL) magnetically stirred at 300 rpm and maintained at 37 °C, leading to an initial enzalutamide concentration of 70 µg/mL. The experiments were performed in triplicate.

[2] = cited from earlier work

Supersaturation ratio (S, amorphous solubility/crystalline solubility) (Aqueous solubility): approximately 14.5
solubility (Aqueous solubility; crystalline form): 2.9 µg/mL (≈ 6.24 µM)
Nucleation induction time [1]: ~ 15 min
SMILES: CNC(=O)c1ccc(N2C(=S)N(c3ccc(C#N)c(C(F)(F)F)c3)C(=O)C2(C)C)cc1F [Enzalutamide]
Aqueous solubility (amorphous solubility) ([2]; amorphous solubility of the drug): 0.042^a mg/mL
Free drug molecularly dissolved ([2]; when 70 μg/mL enzalutamide is added to buffer, rest is colloidal amorphous aggregates): approximately 42 μg/mL
